Laboratory results published in ChEMBL document CHEMBL1201862, “PubChem BioAssay data set” (2004).
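Growth conditions: 96-well plates. Treatment: test compound, 48 hours, 5 concentrations. Analysis: linear interpolation between bracketing concentrations; unreached endpoints set to highest concentration. GI50 is the concentration that inhibits growth by half.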 Active and inactive are the calls of the source. Cut-off read from the data, not from the text of the source: active = GI50 up to about 1.1 µM and inactive = higher. *1 amine or outer side, *2 acyl side, *3 side chain or, on linkers, in order; H or OH if unused. Where a SMILES comes first, the peptide text is derived from it. Bridges are numbered along the chain shown (N, C = ends). [ ]: non-standard residue; d: D form. The star is where a group is joined. X56 = CC(C)C(C)C(C(=O)[*:2])N(C)[*:1]; Picolinoyl(3-OH) = O=C(c1ncccc1O)*; NMePhg = CN[CH](C(=O)O)c1ccccc1; Hyp = O=C(O)[CH]1C[CH](O)CN1; Sar = CNCC(=O)O

Assays:
Test in all cases: NCI-60 cell line screen, 48 h
A549 = system: A549
CCRF-CEM = system: CCRF-CEM
DMS-273 = system: DMS-273
EKVX = system: EKVX
HOP-92 = system: HOP-92
HT-29 = system: HT-29
K562 = system: K562
KM-20L2 = system: KM-20L2
MOLT-4 = system: MOLT-4
NCI-H23 = system: NCI-H23
NCI-H460 = system: NCI-H460
NCI-H522 = system: NCI-H522
OVCAR-3 = system: OVCAR-3
OVCAR-4 = system: OVCAR-4
OVCAR-8 = system: OVCAR-8
RPMI-8226 = system: RPMI-8226
RXF 393 = system: RXF 393
SF-295 = system: SF-295
SK-OV-3 = system: SK-OV-3
XF498 = system: XF498

SMILES	GI50 (A549)	GI50 (CCRF-CEM)	GI50 (DMS-273)	GI50 (EKVX)	GI50 (HOP-92)	GI50 (HT-29)	GI50 (K562)	GI50 (KM-20L2)	GI50 (MOLT-4)	GI50 (NCI-H23)	GI50 (NCI-H460)	GI50 (NCI-H522)	GI50 (OVCAR-3)	GI50 (OVCAR-4)	GI50 (OVCAR-8)	GI50 (RPMI-8226)	GI50 (RXF 393)	GI50 (SF-295)	GI50 (SK-OV-3)	GI50 (XF498)
CCCCC#CS(=O)(=O)C(F)(F)F	> 78.9 µM (inactive)	48.6 µM (inactive)	48 µM (inactive)	> 100 µM (inactive)	34.1 µM (inactive)	22.4 µM (inactive)	45.4 µM (inactive)	81.5 µM (inactive)	33.1 µM (inactive)	58.6 µM (inactive)	> 92.5 µM (inactive)	36.1 µM (inactive)	> 56.4 µM (inactive)	27.9 µM (inactive)	97.1 µM (inactive)	47.4 µM (inactive)	20.4 µM (inactive)	20.3 µM (inactive)	> 94.2 µM (inactive)	56.9 µM (inactive)
N#CC(Nc1cccc(C(F)(F)F)c1)c1ccccc1C(F)(F)F (configuration not stated)	15.3 µM (inactive)	18.4 µM (inactive)	8.04 µM (inactive)	15.4 µM (inactive)	–	13.7 µM (inactive)	14.5 µM (inactive)	13.8 µM (inactive)	14.6 µM (inactive)	13.9 µM (inactive)	15.5 µM (inactive)	6.71 µM (inactive)	6.52 µM (inactive)	5.58 µM (inactive)	16.3 µM (inactive)	–	12.2 µM (inactive)	10.5 µM (inactive)	17.6 µM (inactive)	3.94 µM (inactive)
COc1ccc(C2C3CCCC(C3=O)C(c3ccc(OC)cc3)N2N=O)cc1 (configuration not stated)	34.7 µM (inactive)	26.1 µM (inactive)	23 µM (inactive)	56.9 µM (inactive)	41.7 µM (inactive)	21.4 µM (inactive)	23.9 µM (inactive)	30.7 µM (inactive)	25.2 µM (inactive)	19.5 µM (inactive)	20.6 µM (inactive)	17.1 µM (inactive)	6.71 µM (inactive)	21.7 µM (inactive)	37 µM (inactive)	20.7 µM (inactive)	18.9 µM (inactive)	20.7 µM (inactive)	37.4 µM (inactive)	33.7 µM (inactive)
COC(=O)c1nc(-c2ccc3c(n2)C(=O)C(=N)C(OC)=C3O)c(N)c(-c2ccc(OC)c(OC)c2O)c1C	0.189 µM (active)	2.56 µM (inactive)	0.303 µM (active)	2.57 µM (inactive)	2.16 µM (inactive)	1.73 µM (inactive)	1.93 µM (inactive)	2.24 µM (inactive)	2.04 µM (inactive)	0.217 µM (active)	< 0.01 µM (active)	1.06 µM (active)	0.445 µM (active)	1.66 µM (inactive)	1.08 µM (active)	1.21 µM (inactive)	1.58 µM (inactive)	0.449 µM (active)	1.18 µM (inactive)	1.18 µM (inactive)
CCCSCC(P(=O)(O)O)P(=O)(O)O.NC1CCCCC1	> 100 µM (inactive)	> 100 µM (inactive)	> 100 µM (inactive)	> 100 µM (inactive)	> 100 µM (inactive)	> 100 µM (inactive)	> 100 µM (inactive)	> 100 µM (inactive)	> 100 µM (inactive)	> 100 µM (inactive)	> 100 µM (inactive)	> 100 µM (inactive)	55.7 µM (inactive)	> 100 µM (inactive)	> 100 µM (inactive)	> 100 µM (inactive)	> 100 µM (inactive)	> 100 µM (inactive)	> 100 µM (inactive)	> 100 µM (inactive)
COc1ccc(/C(C=O)=C(\Cl)c2ccc(OC)c(OC)c2)cc1	> 100 µM (inactive)	52.4 µM (inactive)	49.2 µM (inactive)	> 100 µM (inactive)	–	> 100 µM (inactive)	62.8 µM (inactive)	> 100 µM (inactive)	87.3 µM (inactive)	> 100 µM (inactive)	> 100 µM (inactive)	5.83 µM (inactive)	> 100 µM (inactive)	> 100 µM (inactive)	75.5 µM (inactive)	> 100 µM (inactive)	> 100 µM (inactive)	> 100 µM (inactive)	67.1 µM (inactive)	15.4 µM (inactive)
CSCC[C@@H]1C(=O)N(C)[C@H](C(C)(C)C)N1C(=O)c1ccccc1	> 100 µM (inactive)	> 100 µM (inactive)	> 100 µM (inactive)	> 100 µM (inactive)	> 100 µM (inactive)	> 81.5 µM (inactive)	> 100 µM (inactive)	> 100 µM (inactive)	> 100 µM (inactive)	> 100 µM (inactive)	> 100 µM (inactive)	> 100 µM (inactive)	> 100 µM (inactive)	> 100 µM (inactive)	> 100 µM (inactive)	> 100 µM (inactive)	> 100 µM (inactive)	> 100 µM (inactive)	> 100 µM (inactive)	> 100 µM (inactive)
CC(C)CC1NC(=O)C(NC(=O)c2ncccc2O)C(C)OC(=O)C(c2ccccc2)N(C)C(=O)C(C)NC(=O)C(C(C)C(C)C)N(C)C(=O)CN(C)C(=O)C2CC(O)CN2C1=O (configuration not stated) ({Picolinoyl(3-OH)}-TL[Hyp][Sar][X56]A[NMePhg]; ester 1-C; configuration not given here)	52.6 µM (inactive)	60.5 µM (inactive)	34.8 µM (inactive)	10.1 µM (inactive)	74.1 µM (inactive)	37.6 µM (inactive)	61.8 µM (inactive)	7.93 µM (inactive)	43.2 µM (inactive)	58.6 µM (inactive)	12.3 µM (inactive)	124 µM (inactive)	104 µM (inactive)	66.5 µM (inactive)	15.7 µM (inactive)	35.8 µM (inactive)	> 125 µM (inactive)	85.7 µM (inactive)	> 125 µM (inactive)	35.6 µM (inactive)
CCCNC(=O)Nc1c([N+](=O)[O-])cc(C(F)(F)F)cc1[N+](=O)[O-]	58.6 µM (inactive)	> 100 µM (inactive)	> 100 µM (inactive)	> 100 µM (inactive)	> 100 µM (inactive)	37.4 µM (inactive)	47.1 µM (inactive)	26.2 µM (inactive)	> 100 µM (inactive)	43 µM (inactive)	42.1 µM (inactive)	31.3 µM (inactive)	22.3 µM (inactive)	20.3 µM (inactive)	74.3 µM (inactive)	83.9 µM (inactive)	11 µM (inactive)	84.9 µM (inactive)	> 100 µM (inactive)	35.6 µM (inactive)
